Where “and” joins values, the source holds several entries; their conditions need not be identical. Equal values may be shown once.
What was measured:
Bcl-xL(ΔC) = target: T1, Bcl-xL(ΔC) (Homo sapiens, UniProt Q07817); test: Displacement of AA bound to Bcl-xL(ΔC); format: binding
T1 construct: made in house; host or cells: Escherichia coli BL21(DE3) carrying pUB520
Experimental: The non-peptide BCl-xL inhibitors, BH3I-1 and BH3I-2, interact with Phe-97 and Ala-142 in the BCl-xL hydrophobic pocket by NMR chemical shift perturbation (Degterev et al., Nat. Cell Biol. 3:173-182, 2001; Lugovskoy et al., J. Amer. Chem. Soc. 124:1234-1240, 2002). It was determined that BH3I-1 competes with AA1 for Bcl-xL(ΔC) binding.

Bcl-xL(ΔC) WT = target: T2, Bcl-xL(ΔC) WT (Homo sapiens, UniProt Q07817); test: Pore-forming activity, calcein release from liposomes; format: biochemical
T2 construct: inferred from Ni-NTA purification and the pET22b(+) NdeI/XhoI cloning); made in house; host or cells: Escherichia coli BL21(DE3) carrying pUB520
Experimental: Large unilamellar vesicles composed of 60% dioleoylphophatidylcholine and 40% dioleoylphosphatidylglycerol were prepared by the extrusion method of Mayer et al., supra. Lipid stocks, in chloroform, were mixed and dried under a stream of nitrogen gas. The lipid was resuspended by vortexing for 30 min in a solution of 40 mM calcein (Molecular Probes), 25 mM KCl, and 10 mM KOAc, pH 5.0. After 10 freeze-thaw cycles, the lipid suspension was extruded through two 0.1 μm pore diameter Nucleopore filters. Non-entrapped dye was removed by passage over a Sephadex G10 column (Amersham Biosciences). Lipid concentration was measured using the ammonium ferrothiocyanate method (Stewart, Anal. Biochem. 104:10-14, 1980).
For pore assays, recombinant truncated Bcl-2 family protein or mutant protein (Bcl-xL(ΔC)) (500 nM) was added to large unilamellar vesicles (60 μM lipid concentration) in 100 mM KCl, 10 mM KOAc, pH 5.0, and fluorescence measured (490 nm excitation, 520 nm emission) with a Fluoromax-3 spectrophotometer. Peptides of the BH3 domain were incubated with the BCl-xL(ΔC) 5 min prior to mixing with liposomes. AA1 was added to liposomes 1 min before adding the Bcl-xL(ΔC) protein. Samples for kinetic assays were analyzed in a thermostatted cuvette at 37° C. with constant stirring. Dose responses were measured in black quartz microplates (Hellma) at room temperature. Calcein release was expressed as percentage of maximum release with detergent lysis (0.1% Triton X-100).

[1] = test system: TABX1A cells (under-expressing Bcl-xL); test: Cell viability by trypan blue dye exclusion; conditions: Mus musculus, 48 h, read-out: cells remained viable
Excerpt: (§1) Briefly, a DNA fragment encoding the full-length mouse BCl-xL cDNA was isolated from the plasmid PBS.BCL-xL (Tzung et al., Am. J. Path. 150:1985-1995, 1997, incorporated herein by reference in its entirety) by digestion with the restriction endonuclease EcoRI. This EcoRI fragment was cloned into the EcoRI site of the mammalian expression vector pSFFV (Fuhlbrigge et al., Proc. Nat. Acad. Sci. USA 85:5649-5653, 1988) in both sense and antisense orientations, to form expression plasmids pSFFV.Bcl-xL(sense) or pSFFV.Bcl-xL(antisense), respectively. The tumorigenic murine hepatocyte cell line TAMH was transfected by lipofection (Lipofectamine, Life Technologies, Rockville, Md., according to the manufacturer's recommendations) with the plasmids pSFFV.neo (the control), pSFFV.Bcl-xL(sense) or pSFFV.Bcl-xL(antisense). […] Transfectants were selected for the acquisition of neomycin resistance by growing cells in the presence of 750 μg/ml of G418. Bulk transfectants were cloned by limiting dilution and individual clones were screened by immunoblot analysis to determine the level of BCl-xL protein expression as described below.
(§2) Selected transfectants were then tested for whole cell sensitivity to several apoptotic agents. Transfected cells were cultured to reach approximately 80% confluency prior to plating an equal number of cells from selected clones on 12-well tissue culture plates. […] Cell viability was determined by trypan blue dye exclusion. The percentage of viable cells was calculated by the number of viable cells (treated with a particular apoptogenic agent) divided by the number in the control group (untreated).
(§3) TABX2S cells and TABX1A cells were also examined for the effects of various mitochondrial inhibitors. […] At various time points after drug treatment, cells were trypsinized, and cell viability was determined by trypan blue dye exclusion. The number of viable cells were counted and normalized to control group (i.e., % control=number of viable cells (treated group)/number of viable cells (control group)×100).

TAMH.neo cells (control) = test: Cell viability by trypan blue dye exclusion; conditions: Mus musculus, 48 h, read-out: cells remained viable
Excerpt: as §1, §2, §3

[2] = test system: TABX2S cells (over-expressing Bcl-xL); test: cells; conditions: for difference in sensitivity of the two cell lines: TABX2S vs TABX1A
Excerpt: as §1
Selected transfectants were then tested for whole cell sensitivity to several apoptotic agents. Transfected cells were cultured to reach approximately 80% confluency prior to plating an equal number of cells from selected clones on 12-well tissue culture plates. The transplanted cells were treated with the following apoptotic agents: 5 μM doxorubicin for 48 hours; 5 μM cisplatin for 48 hours; or with 200 U/ml tumor necrosis factor (TNF) plus 1 μg/ml actinomycin D for 18 hours. Cell viability was determined by trypan blue dye exclusion. The percentage of viable cells was calculated by the number of viable cells (treated with a particular apoptogenic agent) divided by the number in the control group (untreated).
TABX2S cells and TABX1A cells were also examined for the effects of various mitochondrial inhibitors. […] Azide was diluted from an aqueous stock solution. […] Controls received an equivalent concentration of diluent. At various time points after drug treatment, cells were trypsinized, and cell viability was determined by trypan blue dye exclusion. The number of viable cells were counted and normalized to control group (i.e., % control=number of viable cells (treated group)/number of viable cells (control group)×100).

[3] = test system: TAMH vector-only control cells; test: Cytotoxicity (Alamar Blue); format: cell-based, murine; conditions: 24 h
Experimental: (§4) TAMH cells were transfected with DNA encoding each of the mutant BCl-xL proteins by lipofection (See Example 1 for method). For analysis of BCl-xL expression, 20 μg of cell protein was separated by 20% SDS-PAGE and transferred to nitrocellulose membranes. Immunodetection of BCl-xL was carried out using rabbit anti-Bcl-xL antibody and Protein A/horseradish peroxidase conjugate, followed by chemiluminescent detection. Cells were grown to about 80% confluence in 96-well plates followed by addition of 100 μl of 2X AA1 or staurosporine (STS) solution in complete medium. STS is a natural product originally isolated from the bacterium Streptomyces and found to be capable of inducing apoptosis in certain cells and which induction of apoptosis could be blocked by the expression of a Bcl-2 family protein. Cell viability was determined spectrophotometrically after 24 h treatment as the ratio of reduced and oxidized Alamar Blue (BIOSOURCE) at 570 nm and 600 nm, respectively. All results were normalized against DMSO controls. LD50 values were calculated by non-linear regression analysis using Prism software (Graphpad).

[4] = test system: TAMH cells over-expressing Bcl-xL E92L; test: Cytotoxicity (Alamar Blue) in Bcl-xL transfectants; format: cell-based, murine; conditions: 24 h
Experimental: as §4

[5] = test system: TAMH cells over-expressing Bcl-xL F97W; test: Cytotoxicity (Alamar Blue) in Bcl-xL transfectants; format: cell-based, murine; conditions: 24 h
Experimental: as §4

[6] = test system: TAMH cells over-expressing Bcl-xL F146L; test: Cytotoxicity (Alamar Blue) in Bcl-xL transfectants; format: cell-based, murine; conditions: 24 h
Experimental: as §4

[7] = test system: TAMH cells over-expressing Bcl-xL A142L; test: Cytotoxicity (Alamar Blue) in Bcl-xL transfectants; format: cell-based, murine; conditions: 24 h
Experimental: as §4

[8] = test system: TAMH cells over-expressing Bcl-xL WT; test: Cytotoxicity (Alamar Blue) in Bcl-xL transfectants; format: cell-based, murine; conditions: 24 h
Experimental: as §4

NCI-H929 = test: Propidium iodide exclusion / flow cytometry cytotoxicity; format: cell-based, human; conditions: oligomycin 2-10 mg/ml, rotenone 0.5-2.5 mg/ml
Experimental: (§5) Cell survival was assayed by exclusion of propidium iodide (PI; 10 μg/ml) by unfixed cells. Annexin V-FITC (Pharmingen) or 3, 3′-dihexyloxacarbocyanine iodide (DiOC6(3); Molecular Probes) staining was analyzed together with PI to discriminate early apoptotic cells. Apoptotic cells were also measured as sub-G1 events among ethanol-fixed cells stained with 10 μg/ml PI. All cell samples were analyzed using a benchtop FACSCalibur™ (Becton Dickinson, San Jose, Calif.). Flow data were analyzed using MultiCycle AV software (Phoenix Flow Systems). For intracellular pH measurements, cell pellets were washed once and resuspended in 2 ml of HEPES-buffered medium (no phenol red and no serum). Carboxy-SNARF-1-AM (Molecular Probes, 1 mM stock in DMSO, stored at −20° C.) was added to a final concentration of 10 μM, and the cells were incubated for 30 min at 37° C. Following incubation with SNARF, cells were sedimented and the pellets were held on ice. Immediately before analysis, pellets were resuspended in […] (HBSS; experimental buffer) or high-[K+] buffer containing nigericin (calibration samples).

RPMI-8226 = test: as above; format: cell-based, human; conditions: oligomycin 2-10 mg/ml, rotenone 0.5-2.5 mg/ml
Experimental: as §5

U266 = test: as above; format: cell-based, human; conditions: oligomycin 2-10 mg/ml, rotenone 0.5-2.5 mg/ml
Experimental: as §5

[9] = target: T3, recombinant human Bcl-2ΔC22 (Homo sapiens, UniProt P10415); test: Antimycin A3 fluorescence binding and competition assay
T3 construct: poly-His (N); made in house
Experimental: In this assay, 0 to 5 μM antimycin A3 (Sigma Chemical Co., St. Louis, Mo.) was added to a physiological buffer (50 mM Tris-HCl pH 8.0, 0.2 M NaCl, 2 mM EDTA, 0.5% v/v glycerol) containing recombinant Bcl-2 or BCl-xL protein under conditions that permitted antimycin A3 to bind to the BH3-binding domain of Bcl-2 or BCl-xL (22.5° C. on a Hitachi F-2500 fluorescence spectrofluorimeter equipped with a thermostatted cell holder). […] The excitation wavelength was 335 nm, and the maximum emission wavelength for antimycin A3 was 428 nm with a slit width of 10 nm. The samples were mixed in a quartz cuvette and checked for inner filter effect over the concentration range of antimycin A3 used for this study. Blanks containing antimycin A3 at the same concentration as the experimental samples were used as controls in all measurements and necessary background corrections were made.
Recombinant human Bcl-2ΔC22 (a recombinant human Bcl-2 with a delection of 22 amino acid residue membrane anchor sequence from the carboxyl end) and mouse Bcl-xLΔC20 (a recombinant murine BCl-xL with a delection of the 20 amino acid residue membrane anchor sequence from the carboxyl end) fused with poly-His at the N-terminus were chromatographically purified to homogeneity. The concentrations of antimycin A3 and stock solutions of recombinant proteins were quantitated using an extinction coefficient of 7.24/mM/cm at 320 nm and by Bradford assay, respectively. The stoichiometric ratio of antimycin A3 and Bcl-2 producing the maximal change in antimycin A3 fluorescence was determined with incremental addition of antimycin A3 to a 1.98 μM solution of recombinant Bcl-2 in a volume of 2.1 milliliters. […] For peptide displacement experiments, a solution of 2 μM antimycin A3 and 3 μM Bcl-2 was allowed to reach binding equilibrium at 4° C. prior to fluorescence measurements. Native peptide corresponding to the BH3 domain of Bak (72-[…]87 (SEQ ID NO:1)) or a mutant peptide with a single amino acid change (Leu78Ala-BH3) was added to the solution and the fluorescence measurements were repeated. […]

[10] = test system: mitochondria with normal levels of Bcl-xL expression; test: JC-1 membrane potential of isolated mitochondria; parameters: species or system murine
Experimental: Isolated mitochondria were loaded with JC-1 prior to treatment, and mitochondrial labeling was determined using FACS. […] Antimycin A-treated mitochondria with high levels of Bcl-xL had lower levels of JC-1 staining than parallel samples treated with CCCP. Uncoupled mitochondria still retain a significant Donnan potential because of trapped anionic species and it is likely that antimycin-induced PT and/or swelling of mitochondria led to a further reduction of this residual potential.
As observed for the parent compound, antimycin A3, mitochondria with normal levels of BCl-xL expression were not affected by the 2-methoxy analog.

T3 sequence (P10415 1-217 limits assumed, stated change not applied): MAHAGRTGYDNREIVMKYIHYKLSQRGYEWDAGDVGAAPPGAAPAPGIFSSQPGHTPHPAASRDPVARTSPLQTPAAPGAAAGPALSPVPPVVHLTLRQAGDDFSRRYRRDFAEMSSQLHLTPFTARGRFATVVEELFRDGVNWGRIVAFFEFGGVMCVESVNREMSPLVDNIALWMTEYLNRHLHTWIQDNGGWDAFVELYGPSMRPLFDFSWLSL
T2 sequence (Q07817 1-211 limits assumed, stated change not applied): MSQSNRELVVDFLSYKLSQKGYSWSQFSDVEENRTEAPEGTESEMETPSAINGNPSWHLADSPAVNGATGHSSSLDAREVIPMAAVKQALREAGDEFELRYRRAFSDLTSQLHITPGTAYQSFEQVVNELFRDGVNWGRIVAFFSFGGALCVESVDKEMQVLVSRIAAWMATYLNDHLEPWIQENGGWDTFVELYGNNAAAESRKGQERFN
T1 sequence (Q07817 1-211 limits assumed, stated change not applied): as above

With `CC(C)C(C(=O)O)N1C(=O)/C(=C\c2ccc(Br)cc2)SC1=S` (stereo not shown) [BH3I-1] the Ki (Bcl-xL(ΔC)) was 1.87 ± 0.617 µM and the “effect on Bcl-xL pore-forming activity” value (Bcl-xL(ΔC) WT) was “no effect”.
`COc1cccc2c1C(=O)c1c(O)c3c(c(O)c1C2=O)C[C@@](O)(C(=O)CO)C[C@@H]3O[C@H]1C[C@H](N)[C@H](O)[C@H](C)O1` [doxorubicin] gave a viability at 5 µM [1] of 20%, a viability at 5 µM (TAMH.neo cells (control)) of 50% and a viability at 5 µM ([2]; Mus musculus, 48 h, read-out: cells remained viable) of 88%.
In the case of `CN[C@@H]1C[C@H]2O[C@@](C)([C@@H]1OC)n1c3ccccc3c3c4c(c5c6ccccc6n2c5c31)C(=O)NC4` [STS, staurosporine], the “Cytotoxicity LD50” value [3] is reported as 0.11 ± 0.01 µM, the “Cytotoxicity LD50” value [4] is reported as 0.52 ± 0.12 µM and the “Cytotoxicity LD50” value [5] is reported as 0.34 ± 0.10 µM. The “Cytotoxicity LD50” value [6] was 0.38 ± 0.04 µM, the “Cytotoxicity LD50” value [7] was 0.49 ± 0.11 µM and the “Cytotoxicity LD50” value [8] was 0.58 ± 0.1 µM and 0.58 ± 0.14 µM.
`C=C(C)[C@H]1Cc2c(ccc3c2O[C@@H]2COc4cc(OC)c(OC)cc4[C@@H]2C3=O)O1` [rotenone] was tested, and the “cell killing by oxidative phosphorylation inhibitors” value (NCI-H929) was “none of the myeloma cell lines were killed”, the “cell killing by oxidative phosphorylation inhibitors” value (RPMI-8226) was “none of the myeloma cell lines were killed” and the “cell killing by oxidative phosphorylation inhibitors” value (U266) was “none of the myeloma cell lines were killed”. For the same compound, the “difference in sensitivity of the two cell lines” value [2] was “no significant differences” and the “time until cell death apparent” value ([2]; after treatment, TABX2S and TABX1A cells) was “six to eight”.
`CCCC[C@H]1C(=O)O[C@H](C)[C@H](NC(=O)c2cccc(NC=O)c2O)C(=O)O[C@@H](C)[C@@H]1OC(=O)CC(C)C` [antimycin A3, reference compound] was tested, and the “increase of intrinsic fluorescence at 428 nm in the presence of Bcl-2” value [9] was ≤ 18% and the “mitochondrial depolarization (JC-1)” value [10] was “not affected”.
With `CC[C@H]1/C=C/C=C/C[C@@H](C)[C@H](O)[C@@](C)(O)C(=O)[C@@H](C)[C@H](O)[C@@H](C)C(=O)[C@@H](C)[C@H](O)[C@@H](C)/C=C/C(=O)O[C@@H]2[C@H](C)[C@H](CC1)O[C@]1(CC[C@H](C)[C@H](C[C@@H](C)O)O1)[C@H]2C` [oligomycin] the “cell killing by oxidative phosphorylation inhibitors” value (NCI-H929) was “killed”, the “cell killing by oxidative phosphorylation inhibitors” value (RPMI-8226) was “Only NCI-H929 cells were killed” and the “cell killing by oxidative phosphorylation inhibitors” value (U266) was “Only NCI-H929 cells were killed”. For the same compound, the “difference in sensitivity of the two cell lines” value [2] was “no significant differences”.

Source: patent publication US20050239873A1 (priority 1999, published 2005)
